According to PMC10066322 (Scientific Reports, 2023):

Tests used:
Hela cells = test: Cell death assay (cell counting, with or without doxorubicin); format: cell-based, human
Experimental: Previous work has shown that PARN inhibition leads to cell death in combination with DNA damaging agent, which has been interpreted to occur through the induction of p53[11].
Cell counting were done 2 days post-treatment. For doxorubicin (EMD Millipore, 504042) treatment, doxorubicin (1 μM) was added to cells. Cells were collected and counted at 0 h and 24 h after treatment.

PARN1-430 [1] = target: T1, PARN1-430 (Homo sapiens, UniProt O95453); test: Inhibition fluorescence assay (FAM-RNA / BHQ quencher deadenylase assay); format: biochemical
T1 construct: expression of the C-terminal truncated protein (1-430 aa of PARN) was soluble; His tag (from the pCold I vector); made in house; host or cells: E. coli Rosetta 2 DE
T1 sequence (O95453 1-430): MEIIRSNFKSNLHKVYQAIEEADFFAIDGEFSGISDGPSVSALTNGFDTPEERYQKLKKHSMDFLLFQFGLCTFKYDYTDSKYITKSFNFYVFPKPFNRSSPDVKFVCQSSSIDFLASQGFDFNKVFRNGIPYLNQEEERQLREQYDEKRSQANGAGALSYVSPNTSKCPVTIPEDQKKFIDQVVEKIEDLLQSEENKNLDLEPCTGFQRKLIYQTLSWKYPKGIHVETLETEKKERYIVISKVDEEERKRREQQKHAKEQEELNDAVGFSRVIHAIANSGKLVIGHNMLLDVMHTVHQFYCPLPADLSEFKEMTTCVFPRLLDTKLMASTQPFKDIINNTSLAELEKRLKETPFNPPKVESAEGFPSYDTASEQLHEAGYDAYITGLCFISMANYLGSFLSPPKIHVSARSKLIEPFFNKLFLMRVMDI
Experimental: To easily screen compounds for inhibition of PARN activity, we developed an assay in which fluorescence was used as the readout for monitoring PARN1-430’s activity (Fig. 3a). This assay was modeled on a similar assay developed for Caf1/CNOT7 deadenylase. In this assay, PARN1-430 was incubated with a 5′-fluorescently labeled oligoadenylated RNA. In the absence of deadenylation, this substrate RNA can effectively hybridize to a complementary DNA oligonucleotide with a quencher on its 3′ end leading to a loss of fluorescence (Fig. 3a). When the RNA substrate is deadenylated, the quenching oligonucleotide is no longer able to stably hybridize leading to an increase in fluorescence in the reaction.
Figure 3 Developing a fluorescence assay for PARN inhibition. (a) Cartoon depicting the inhibition fluorescence assay. Schematic diagram of the fluorescence-based deadenylase assay. The assay is based on a 5′ FAM-labelled RNA oligonucleotide substrate. After incubation of the substrate in the presence of PARN1-430, the reaction is stopped and a 3′ BHQ-labelled DNA oligonucleotide probe complementary to the RNA substrate is added. The fluorescence of intact substrate is quenched upon probe hybridization because of the proximity of the BHQ […]. In contrast, the BHQ-labelled probe cannot hybridize to the FAM-labelled reaction product allowing detection of FAM fluorescence. […] 2-way ANOVA, multiple comparisons test, average ± SD, n = 3 replicates. *P < 0.05, **P < 0.005, ***P < 0.001, ****P < 0.0001, n.s. was not indicated. […] Dotted-line represents RNA and RNA + Quencher data. One-way ANOVA, multiple comparisons test, average ± SD, n ≥ 3 replicates. *P < 0.05, **P < 0.005, ***P < 0.001, ****P < 0.0001, n.s. was not indicated. (d) PARN1-430 and PARNmut enzymatic activity measured at different time points. […] Dotted-line represents RNA and RNA + Quencher data. 2-way ANOVA, multiple comparisons test, average ± SD, n = 3 replicates. *P < 0.05, **P < 0.005, ***P < 0.001, ****P < 0.0001, n.s. was not indicated.
Quenched reaction was incubated at room temperature for 10–60 min and fluorescence was measured using Fluorescein wavelength measurement.

PARN1-430 [2] = target: T1, PARN1-430; test: Gel assay of poly(A) RNA shortening by PARN1-430; format: biochemical
Experimental: PARN1-430 was incubated with a fluorescently labeled RNA with a CCUUUCC sequence followed by a 9 nucleotide-long poly(A) tail and the reaction product was visualized on denaturing acrylamide gels. We observed that PARN removed the 3′ oligo(A) tail from the RNA substrate (Fig. 2c and d). […] Moreover, we observed that PARN is inhibited when treated with adenosine monophosphate (AMP), as has been reported previously.
1 µL of protein (73 nM as final concentration) (stock protein is diluted in 1× lysis buffer (HEPES KOH, pH 7.4, 30 mM, KOAc 100 mM, and Mg(Oac)2 2 mM) was added to 4 µL of 2.5× reaction buffer (Tris–HCl pH 7.4, 10 mM, KCl 50 mM, MgCl2 5 mM). If drug was added, reaction was pre-incubated with drugs for 10 min before 5 µL of RNA (5 µM as final concentration) was added. The reaction was incubated at 37 °C for 20 min. After the incubation, the reaction was either diluted with 2× loading buffer and heated to 95 °C for 5 min for gel or quenched by adding 10 µL of quencher solution (30 µM of 3′-BHQ labeled quench DNA in 1% SDS). Quenched reaction was incubated at room temperature for 10–60 min and fluorescence was measured using Fluorescein wavelength measurement.
15% TBE-Urea gel (Thermo Fisher Scientific) was prerun at 20W for 30 min. RNAs from the reaction was loaded into 15% TBE gels and run at 300 V for 35 min. The gel was visualized using iBright (Invitrogen FL1500).

hTR levels in Hela cells = hTR levels in Hela cells by RT-qPCR; format: cell-based, human; settings: 50 µM, 2 days, RT-qPCR vs DMSO
Experimental: 48 h after transfection/drug treatment, cells were collected for either RNA or protein analysis.
Extracted total RNA was reverse transcribed using Mir-X miRNA first strand synthesis kit (Taraka, Cat # 638315) to make cDNA and qPCR was perfomred with iQ SYBR Green Supermix (BioRad, Cat. No. 1708880) with […] (forward primer) and […] (reverse primer) for hTR. The RNA levels were normalized using 5S rRNA as a housekeeping gene.

With Cc1ccc(Nc2ncc3c(n2)N(C)C(=O)N(c2cc(NC(=O)c4cccc(C(F)(F)F)c4)ccc2C)C3)cn1 [GNF-7] the “sensitivity of cells to doxorubicin (cell death)” value (Hela cells; Hela cells treated 2 days, then doxorubicin 1 μM for 24 h) was “increase the sensitivity”, the “cell growth compared to DMSO treatment” value (Hela cells; Hela cells, 25 μM, 2 days) was “growth defects” and the IC50 (PARN1-430 [1]; GNF-7 on PARN1-430, 10 min pre-treatment, non-linear fit) was 35 ± 15 µM. For the same compound, the “inhibitory effect on PARN1-430, fluorescence assay” value (PARN1-430 [1]; among 15 docking compounds tested) was “strongest inhibitory effect”, the “PARN inhibitor in vitro” value (PARN1-430 [1]; computational docking compounds, fluorescence assay and gels, PARN1-430 pretreated with drug 10 min) was “Yes” and the “inhibitory effect on PARN1-430, gel assay” value (PARN1-430 [2]) was “most effective PARN1-430 inhibitor”. The hTR levels (hTR levels in Hela cells) was “decreased”.
